Test [1] deals with RAC-gamma serine/threonine-protein kinase (Homo sapiens, UniProt Q9Y243). Conditions: at 10 µM.
For test [2], the target named is Cyclin-dependent kinase 13 (Homo sapiens, UniProt Q14004). Description: Selectivity interaction (KinomeScan (DiscoverX)) EUB0001079a CDK13. Particulars: at 1 µM.
Test [3] addresses T1, Rhodopsin kinase GRK7 (Homo sapiens) (UniProt Q8WTQ7).
T1 sequence (whole entry): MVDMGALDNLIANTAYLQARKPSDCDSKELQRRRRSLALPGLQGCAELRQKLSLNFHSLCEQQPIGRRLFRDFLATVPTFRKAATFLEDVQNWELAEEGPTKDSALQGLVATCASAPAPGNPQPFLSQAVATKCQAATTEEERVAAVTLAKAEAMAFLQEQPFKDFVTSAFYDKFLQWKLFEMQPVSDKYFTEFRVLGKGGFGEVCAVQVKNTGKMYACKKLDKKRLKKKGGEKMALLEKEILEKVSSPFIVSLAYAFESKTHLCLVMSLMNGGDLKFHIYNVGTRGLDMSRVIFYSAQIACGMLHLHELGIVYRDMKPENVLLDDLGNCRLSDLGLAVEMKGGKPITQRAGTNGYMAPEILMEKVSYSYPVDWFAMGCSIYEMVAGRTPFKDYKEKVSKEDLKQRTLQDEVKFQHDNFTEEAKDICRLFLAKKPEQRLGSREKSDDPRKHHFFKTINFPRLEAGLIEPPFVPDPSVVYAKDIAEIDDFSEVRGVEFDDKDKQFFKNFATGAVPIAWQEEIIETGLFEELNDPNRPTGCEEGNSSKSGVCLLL
Description: Selectivity interaction (KinomeScan (DiscoverX)) EUB0001079a GRK7. Conditions: at 1 µM.

A further test has as its target Insulin receptor (Homo sapiens, UniProt P06213). Description: Selectivity interaction (KinomeScan (DiscoverX)) EUB0000092b INSR. Conditions: at 10 µM.
Test [4] deals with Casein kinase I isoform gamma-1 (Homo sapiens) (UniProt Q9HCP0). Description: Selectivity interaction (KinomeScan (DiscoverX)) EUB0000666a CSNK1G1. Conditions: at 10 µM.
Test [5] deals with T2, Myosin-IIIb (Homo sapiens) (UniProt Q8WXR4).
T2 sequence (whole entry): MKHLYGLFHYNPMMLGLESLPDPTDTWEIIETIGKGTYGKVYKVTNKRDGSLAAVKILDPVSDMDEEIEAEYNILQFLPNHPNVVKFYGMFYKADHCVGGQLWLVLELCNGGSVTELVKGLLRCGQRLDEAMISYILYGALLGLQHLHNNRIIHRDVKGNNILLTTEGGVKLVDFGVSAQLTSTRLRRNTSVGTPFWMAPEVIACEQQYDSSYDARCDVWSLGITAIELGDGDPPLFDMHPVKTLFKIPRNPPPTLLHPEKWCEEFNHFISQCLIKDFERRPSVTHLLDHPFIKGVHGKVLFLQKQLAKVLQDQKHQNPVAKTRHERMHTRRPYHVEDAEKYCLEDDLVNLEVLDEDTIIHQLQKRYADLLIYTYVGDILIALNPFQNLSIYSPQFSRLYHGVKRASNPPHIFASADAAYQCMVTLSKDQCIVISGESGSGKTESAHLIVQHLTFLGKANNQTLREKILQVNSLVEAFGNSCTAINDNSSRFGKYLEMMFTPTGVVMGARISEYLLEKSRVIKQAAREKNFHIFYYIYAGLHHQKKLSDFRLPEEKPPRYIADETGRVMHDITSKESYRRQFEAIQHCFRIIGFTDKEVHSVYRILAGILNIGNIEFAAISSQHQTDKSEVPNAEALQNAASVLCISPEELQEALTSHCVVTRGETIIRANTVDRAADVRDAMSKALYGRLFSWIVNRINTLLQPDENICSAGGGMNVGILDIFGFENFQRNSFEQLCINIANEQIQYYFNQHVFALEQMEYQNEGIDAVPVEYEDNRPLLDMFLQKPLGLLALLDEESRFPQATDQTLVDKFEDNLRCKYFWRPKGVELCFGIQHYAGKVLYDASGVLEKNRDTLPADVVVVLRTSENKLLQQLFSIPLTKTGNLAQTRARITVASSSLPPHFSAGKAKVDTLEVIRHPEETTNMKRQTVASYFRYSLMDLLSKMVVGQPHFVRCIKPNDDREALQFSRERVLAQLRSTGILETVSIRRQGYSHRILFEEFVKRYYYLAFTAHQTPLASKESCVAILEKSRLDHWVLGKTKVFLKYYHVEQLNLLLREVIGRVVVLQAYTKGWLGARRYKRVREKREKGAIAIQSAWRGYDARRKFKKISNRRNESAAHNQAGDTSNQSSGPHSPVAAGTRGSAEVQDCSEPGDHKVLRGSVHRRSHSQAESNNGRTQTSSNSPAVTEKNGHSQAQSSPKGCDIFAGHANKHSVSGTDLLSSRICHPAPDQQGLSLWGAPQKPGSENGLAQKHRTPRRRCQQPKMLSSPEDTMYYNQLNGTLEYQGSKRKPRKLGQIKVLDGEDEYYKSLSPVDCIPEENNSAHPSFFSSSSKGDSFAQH
Description: Selectivity interaction (KinomeScan (DiscoverX)) EUB0000666a MYO3B. Particulars: at 10 µM.

Test [6] has as its target Mast/stem cell growth factor receptor Kit (Homo sapiens, UniProt P10721). Description: Selectivity interaction (KinomeScan (DiscoverX)) EUB0000229b KIT. Particulars: at 10 µM.

Chain of Insulin receptor (P06213 28-758 limits assumed): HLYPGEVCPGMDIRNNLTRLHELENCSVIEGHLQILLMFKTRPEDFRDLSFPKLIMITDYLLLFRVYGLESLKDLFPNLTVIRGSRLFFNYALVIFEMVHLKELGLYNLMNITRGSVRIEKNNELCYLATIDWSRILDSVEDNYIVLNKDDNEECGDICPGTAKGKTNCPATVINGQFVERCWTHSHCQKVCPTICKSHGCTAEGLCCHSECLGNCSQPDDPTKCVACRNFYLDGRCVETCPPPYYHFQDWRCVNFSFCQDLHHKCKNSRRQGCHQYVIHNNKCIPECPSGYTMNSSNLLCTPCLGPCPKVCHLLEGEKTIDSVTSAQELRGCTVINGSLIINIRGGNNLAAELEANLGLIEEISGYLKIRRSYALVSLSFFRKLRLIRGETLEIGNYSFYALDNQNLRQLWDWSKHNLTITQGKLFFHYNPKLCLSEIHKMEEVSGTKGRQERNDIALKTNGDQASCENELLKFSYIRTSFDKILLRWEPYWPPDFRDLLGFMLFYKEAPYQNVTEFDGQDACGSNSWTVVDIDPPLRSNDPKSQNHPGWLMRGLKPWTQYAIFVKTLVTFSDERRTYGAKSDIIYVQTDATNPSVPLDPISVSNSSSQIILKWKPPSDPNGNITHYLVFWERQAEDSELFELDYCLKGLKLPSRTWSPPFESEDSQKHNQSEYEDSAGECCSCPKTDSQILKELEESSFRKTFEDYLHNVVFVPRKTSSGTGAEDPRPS
Chain of Insulin receptor (P06213 763-1382 limits assumed): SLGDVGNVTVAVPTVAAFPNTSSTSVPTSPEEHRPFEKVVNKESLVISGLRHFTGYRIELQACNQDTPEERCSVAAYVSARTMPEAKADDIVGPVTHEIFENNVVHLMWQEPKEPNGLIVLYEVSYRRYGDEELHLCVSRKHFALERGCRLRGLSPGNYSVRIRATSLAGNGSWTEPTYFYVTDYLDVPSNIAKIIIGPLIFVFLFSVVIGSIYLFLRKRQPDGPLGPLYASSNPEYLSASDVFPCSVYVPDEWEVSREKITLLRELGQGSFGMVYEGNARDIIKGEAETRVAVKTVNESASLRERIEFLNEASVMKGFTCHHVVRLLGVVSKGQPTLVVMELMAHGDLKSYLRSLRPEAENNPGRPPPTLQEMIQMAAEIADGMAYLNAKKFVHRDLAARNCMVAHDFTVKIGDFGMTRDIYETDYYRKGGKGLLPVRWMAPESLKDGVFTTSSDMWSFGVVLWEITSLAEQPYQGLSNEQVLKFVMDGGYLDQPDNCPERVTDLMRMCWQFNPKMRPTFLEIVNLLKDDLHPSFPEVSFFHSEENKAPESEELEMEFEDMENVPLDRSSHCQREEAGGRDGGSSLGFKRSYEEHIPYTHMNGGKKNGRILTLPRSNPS
Chain of Cyclin-dependent kinase 13 (Q14004 whole entry, looked up): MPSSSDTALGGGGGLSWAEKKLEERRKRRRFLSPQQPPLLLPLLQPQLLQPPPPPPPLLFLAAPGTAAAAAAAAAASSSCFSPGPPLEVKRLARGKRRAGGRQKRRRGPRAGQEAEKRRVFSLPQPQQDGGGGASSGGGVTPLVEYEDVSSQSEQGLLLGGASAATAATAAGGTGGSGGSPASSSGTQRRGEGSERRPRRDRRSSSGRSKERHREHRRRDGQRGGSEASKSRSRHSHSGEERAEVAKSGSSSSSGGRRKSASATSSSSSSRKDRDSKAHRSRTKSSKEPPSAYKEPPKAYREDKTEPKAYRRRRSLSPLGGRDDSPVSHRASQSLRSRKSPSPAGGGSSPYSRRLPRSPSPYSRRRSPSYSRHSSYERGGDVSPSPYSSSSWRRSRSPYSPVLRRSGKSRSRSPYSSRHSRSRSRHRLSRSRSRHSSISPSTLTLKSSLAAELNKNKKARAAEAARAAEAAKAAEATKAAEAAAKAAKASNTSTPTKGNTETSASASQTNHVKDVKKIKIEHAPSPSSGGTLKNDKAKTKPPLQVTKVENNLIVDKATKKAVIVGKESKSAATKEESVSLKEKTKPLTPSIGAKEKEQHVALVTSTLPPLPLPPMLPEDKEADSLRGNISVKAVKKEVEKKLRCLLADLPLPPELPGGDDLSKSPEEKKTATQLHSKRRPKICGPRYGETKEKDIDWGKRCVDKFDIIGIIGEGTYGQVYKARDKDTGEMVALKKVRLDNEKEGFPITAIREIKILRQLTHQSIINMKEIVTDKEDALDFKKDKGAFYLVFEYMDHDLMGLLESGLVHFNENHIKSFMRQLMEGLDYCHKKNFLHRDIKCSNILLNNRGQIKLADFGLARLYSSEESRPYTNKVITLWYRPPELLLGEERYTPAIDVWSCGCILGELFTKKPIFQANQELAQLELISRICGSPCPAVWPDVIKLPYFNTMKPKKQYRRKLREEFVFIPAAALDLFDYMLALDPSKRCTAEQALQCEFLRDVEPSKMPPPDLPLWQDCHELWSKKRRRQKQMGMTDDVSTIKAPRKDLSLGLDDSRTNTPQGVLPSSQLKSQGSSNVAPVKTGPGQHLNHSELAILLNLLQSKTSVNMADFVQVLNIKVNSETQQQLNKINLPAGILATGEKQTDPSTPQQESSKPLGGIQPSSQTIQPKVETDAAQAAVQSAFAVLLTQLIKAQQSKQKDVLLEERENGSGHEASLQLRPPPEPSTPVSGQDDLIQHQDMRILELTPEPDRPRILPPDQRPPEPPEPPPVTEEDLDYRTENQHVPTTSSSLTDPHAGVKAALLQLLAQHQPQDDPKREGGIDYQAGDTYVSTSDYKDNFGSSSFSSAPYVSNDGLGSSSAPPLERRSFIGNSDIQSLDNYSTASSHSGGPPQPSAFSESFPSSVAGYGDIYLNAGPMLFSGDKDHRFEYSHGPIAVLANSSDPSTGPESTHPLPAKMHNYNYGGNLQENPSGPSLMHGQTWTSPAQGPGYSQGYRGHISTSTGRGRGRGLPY
Chain of RAC-gamma serine/threonine-protein kinase (Q9Y243 whole entry): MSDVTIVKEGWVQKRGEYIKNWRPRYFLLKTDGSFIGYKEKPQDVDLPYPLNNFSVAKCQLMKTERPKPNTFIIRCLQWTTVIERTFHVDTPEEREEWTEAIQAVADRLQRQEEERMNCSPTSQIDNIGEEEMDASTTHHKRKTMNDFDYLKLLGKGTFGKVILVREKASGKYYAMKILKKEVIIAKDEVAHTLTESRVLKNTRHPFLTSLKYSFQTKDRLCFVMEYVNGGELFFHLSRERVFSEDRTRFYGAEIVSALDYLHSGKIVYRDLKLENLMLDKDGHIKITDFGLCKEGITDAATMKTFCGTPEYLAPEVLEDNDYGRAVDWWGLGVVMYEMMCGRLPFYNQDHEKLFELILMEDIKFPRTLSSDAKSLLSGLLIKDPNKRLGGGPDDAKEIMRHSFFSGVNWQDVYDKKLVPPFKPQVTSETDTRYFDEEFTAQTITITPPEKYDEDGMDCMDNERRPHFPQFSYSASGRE
Chain of Casein kinase I isoform gamma-1 (Homo sapiens) (Q9HCP0 whole entry, looked up, canonical isoform): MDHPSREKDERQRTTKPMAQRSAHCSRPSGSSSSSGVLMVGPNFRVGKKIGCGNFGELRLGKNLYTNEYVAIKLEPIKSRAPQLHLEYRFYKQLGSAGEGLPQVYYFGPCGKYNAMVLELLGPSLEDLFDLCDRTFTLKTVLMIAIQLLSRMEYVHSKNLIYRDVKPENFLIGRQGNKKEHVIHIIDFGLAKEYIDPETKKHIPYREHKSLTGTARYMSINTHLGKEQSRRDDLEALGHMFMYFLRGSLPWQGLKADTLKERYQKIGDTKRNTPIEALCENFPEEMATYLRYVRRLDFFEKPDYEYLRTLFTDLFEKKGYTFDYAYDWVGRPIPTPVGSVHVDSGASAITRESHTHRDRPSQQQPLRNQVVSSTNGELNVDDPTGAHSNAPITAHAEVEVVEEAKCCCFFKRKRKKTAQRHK
Chain of Mast/stem cell growth factor receptor Kit (P10721 whole entry): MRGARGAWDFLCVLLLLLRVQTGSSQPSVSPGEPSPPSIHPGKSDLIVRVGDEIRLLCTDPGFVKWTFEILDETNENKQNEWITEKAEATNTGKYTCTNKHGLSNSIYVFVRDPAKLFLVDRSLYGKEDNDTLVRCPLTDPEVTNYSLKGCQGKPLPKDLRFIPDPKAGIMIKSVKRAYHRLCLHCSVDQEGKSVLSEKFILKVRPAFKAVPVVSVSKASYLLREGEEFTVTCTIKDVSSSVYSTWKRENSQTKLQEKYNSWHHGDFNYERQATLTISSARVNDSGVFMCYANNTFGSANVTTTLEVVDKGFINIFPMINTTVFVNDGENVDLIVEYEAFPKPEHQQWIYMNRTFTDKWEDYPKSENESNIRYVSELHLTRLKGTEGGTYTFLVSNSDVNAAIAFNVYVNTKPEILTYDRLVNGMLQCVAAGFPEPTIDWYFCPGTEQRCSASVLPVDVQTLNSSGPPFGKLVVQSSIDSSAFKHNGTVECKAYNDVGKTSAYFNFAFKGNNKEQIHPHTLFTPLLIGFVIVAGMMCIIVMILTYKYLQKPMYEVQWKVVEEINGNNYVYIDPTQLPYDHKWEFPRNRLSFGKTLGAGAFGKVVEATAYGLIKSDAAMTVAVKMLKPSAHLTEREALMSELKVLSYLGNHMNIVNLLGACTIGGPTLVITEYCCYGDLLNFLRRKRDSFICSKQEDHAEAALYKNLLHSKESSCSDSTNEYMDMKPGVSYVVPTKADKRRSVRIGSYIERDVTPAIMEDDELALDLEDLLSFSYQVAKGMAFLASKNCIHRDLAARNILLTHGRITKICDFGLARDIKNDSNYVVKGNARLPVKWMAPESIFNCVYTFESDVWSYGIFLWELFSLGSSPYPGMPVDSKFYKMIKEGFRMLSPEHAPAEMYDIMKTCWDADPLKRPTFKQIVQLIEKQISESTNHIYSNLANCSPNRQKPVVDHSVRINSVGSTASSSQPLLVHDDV

In test [1], `CCN(CC)CCCCNc1ncc2cc(-c3cc(OC)cc(OC)c3)c(NC(=O)NC(C)(C)C)nc2n1` had a % of control of 100%.

For `Nc1cnc(N2CCc3cc(S(=O)(=O)Nc4c(F)cc(Cl)cc4F)cc(N4CCCC4=O)c32)nc1` [TP-020n], the % of control in test [2] amounted to 100%; in test [3] it was 99%. Take `CCC(=O)N1CCN(c2ccc(-n3c(=O)ccc4cnc5ccc(-c6cnc7ccccc7c6)cc5c43)cc2C(F)(F)F)CC1`: the % of control at Insulin receptor amounted to 7.6%. Turning to `O=C(NOC[C@H](O)CO)c1ccc(F)c(F)c1Nc1ccc(I)cc1F`, the % of control came to 61% in test [4] and 99% in test [5]. The compound `COc1cc(N(C)c2ccnc3ccc(C(F)(F)F)cc23)cc(OC)c1OC` yielded a % binding in test [6] of 99%.

Values taken from ChEMBL document CHEMBL5465560, “Selectivity Literature for EUbOPEN Chemogenomic Library” (2024).
